Data published in PubChem BioAssay AID1963867 (Molecular Pharmacology Branch, DTP, NCI, 2024).
pIC50: −log10 of the molar value.

Tested on: KRAS-mutant PDC tumor spheroid with HUVEC/MSC, viability
Assay: Anticancer human tumor 327498-153-R-J2-PDC patient-derived uterine carcinosarcoma cell line growth inhibition [KRAS2]
Details: for pIC50: curve of first compound; for viability, T/C: stronger effect = lower value
Method in brief: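 KRAS-mutant tumor cells were grown as spheroids with HUVEC endothelial cells and human MSCs as stroma. Targeted agents were tested alone and with KRAS pathway inhibitors. Doses started at or near clinical Cmax, or 10 microM, descending half-log.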

[1] = second compound 0.1 µM, first compound 0.0316 µM
[2] = second compound 0.1 µM, first compound 0.1 µM
[3] = second compound 0.1 µM, first compound 0.316 µM
[4] = second compound 0.1 µM, first compound 1 µM
[5] = second compound 0.1 µM, first compound 3.16 µM
[6] = second compound 0.1 µM, first compound 10 µM
[7] = second compound 0.316 µM, first compound 0.0316 µM
[8] = second compound 0.316 µM, first compound 0.1 µM
[9] = second compound 0.316 µM, first compound 0.316 µM
[10] = second compound 0.316 µM, first compound 1 µM
[11] = second compound 0.316 µM, first compound 3.16 µM
[12] = second compound 0.316 µM, first compound 10 µM
[13] = second compound 1 µM, first compound 0.0316 µM
[14] = second compound 1 µM, first compound 0.1 µM
[15] = second compound 1 µM, first compound 0.316 µM
[16] = second compound 1 µM, first compound 1 µM
[17] = second compound 1 µM, first compound 3.16 µM
[18] = second compound 1 µM, first compound 10 µM
[19] = second compound 3.16 µM, first compound 0.0316 µM
[20] = second compound 3.16 µM, first compound 0.1 µM
[21] = second compound 3.16 µM, first compound 0.316 µM
[22] = second compound 3.16 µM, first compound 1 µM
[23] = second compound 3.16 µM, first compound 3.16 µM
[24] = second compound 3.16 µM, first compound 10 µM
[25] = second compound 10 µM, first compound 0.0316 µM
[26] = second compound 10 µM, first compound 0.1 µM
[27] = second compound 10 µM, first compound 0.316 µM
[28] = second compound 10 µM, first compound 1 µM
[29] = second compound 10 µM, first compound 3.16 µM
[30] = second compound 10 µM, first compound 10 µM
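Further: spheroids exposed to agents for seven days before reading.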
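Wherever viability, T/C is given: 100% = DMSO vehicle wells so lower means fewer viable cells.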

Compound | pIC50 (second compound 0.1 µM) | pIC50 (second compound 0.316 µM) | pIC50 (second compound 1 µM) | pIC50 (second compound 3.16 µM) | pIC50 (second compound 10 µM) | viability, T/C [1] [%] | viability, T/C [2] [%] | viability, T/C [3] [%] | viability, T/C [4] [%] | viability, T/C [7] [%] | viability, T/C [8] [%] | viability, T/C [9] [%] | viability, T/C [10] [%] | viability, T/C [13] [%] | viability, T/C [14] [%] | viability, T/C [15] [%] | viability, T/C [16] [%] | viability, T/C [19] [%] | viability, T/C [20] [%] | viability, T/C [21] [%] | further results
Cn1nccc1Nc1nccc(-c2cc3c(s2)C(C)(C)N(CCN2CCOCC2)C3=O)n1 + CNCc1ccccc1-c1csc(C(C)Nc2nc(C)nc3cc(OC)c(OC)cc23)c1 | 5.79 | 5.93 | 5.99 | > 7.50 | > 7.50 | 73.9 | 76.8 | 64 | 55.7 | 77.7 | 62.6 | 64.6 | 50.2 | 62 | 62 | 58.6 | 48.2 | 0.13 | 0.11 | 0.1 | viability, T/C [5]: 43.5%; viability, T/C [6]: 35.9%; viability, T/C [11]: 42.2%; viability, T/C [12]: 32.5%; viability, T/C [17]: 41.3%; viability, T/C [18]: 34.1%; viability, T/C [22]: 2.37%; viability, T/C [23]: 0.1%; viability, T/C [24]: 0.18%; viability, T/C [25]: 0.14%; viability, T/C [26]: 0.68%; viability, T/C [27]: 0.13%; viability, T/C [28]: 0.38%; viability, T/C [29]: 0.22%; viability, T/C [30]: 0.23%
CC1OCC2(CCN(c3cnc(Sc4ccnc(N)c4Cl)c(N)n3)CC2)C1N (stereo not given) + C=CC(=O)N1CCN(c2nc(=O)n(-c3c(C)ccnc3C(C)C)c3nc(-c4c(O)cccc4F)c(F)cc23)C(C)C1 | > 7.50 | > 7.50 | > 7.50 | > 7.50 | > 7.50 | 44.1 | 34.8 | 25.5 | 25.2 | 41.1 | 33.4 | 26.4 | 23.3 | 40.6 | 31.6 | 31.7 | 22.9 | 41.8 | 37.4 | 28.7 | viability, T/C [5]: 21%; viability, T/C [6]: 16.3%; viability, T/C [11]: 19.1%; viability, T/C [12]: 15.9%; viability, T/C [17]: 17.8%; viability, T/C [18]: 16.9%; viability, T/C [22]: 23.2%; viability, T/C [23]: 22.8%; viability, T/C [24]: 19.4%; viability, T/C [25]: 33.3%; viability, T/C [26]: 28%; viability, T/C [27]: 23.1%; viability, T/C [28]: 21.1%; viability, T/C [29]: 16.1%; viability, T/C [30]: 16.9%
CCN1CCN(Cc2ccc(Nc3ncc(F)c(-c4cc(F)c5nc(C)n(C(C)C)c5c4)n3)nc2)CC1 + CC1OCC2(CCN(c3cnc(Sc4ccnc(N)c4Cl)c(N)n3)CC2)C1N | 8.08 | > 8.50 | > 8.50 | > 8.50 | > 8.50 | 36.7 | 37.9 | 44.6 | 45.5 | 26.9 | 29.2 | 26.6 | 33.5 | 24.5 | 21.3 | 22 | 26.5 | 16.2 | 16.7 | 18.5 | viability, T/C (second compound 0.1 µM, first compound 0.00316 µM): 61.5%; viability, T/C (second compound 0.1 µM, first compound 0.01 µM): 49%; viability, T/C (second compound 0.316 µM, first compound 0.00316 µM): 42.5%; viability, T/C (second compound 0.316 µM, first compound 0.01 µM): 31.6%; viability, T/C (second compound 1 µM, first compound 0.00316 µM): 34.2%; viability, T/C (second compound 1 µM, first compound 0.01 µM): 23.7%; viability, T/C (second compound 3.16 µM, first compound 0.00316 µM): 20%; viability, T/C (second compound 3.16 µM, first compound 0.01 µM): 16.6%; viability, T/C [22]: 22.1%; viability, T/C (second compound 10 µM, first compound 0.00316 µM): 19%; viability, T/C (second compound 10 µM, first compound 0.01 µM): 16.2%; viability, T/C [25]: 17.8%; viability, T/C [26]: 16.9%; viability, T/C [27]: 20.8%; viability, T/C [28]: 22%
